Experimental data as given in ChEMBL document CHEMBL3297661, “1-Substituted-5-[(3,5-dinitrobenzyl)sulfanyl]-1H-tetrazoles and their isosteric analogs: A new class of selective antitubercular agents active against drug-susceptible and multidrug-resistant mycobacteria” (Eur J Med Chem, 2014).
Converted amounts (≈) assume the structure as drawn.

system: Mycobacterium tuberculosis; experiment: Antimycobacterial activity against Mycobacterium tuberculosis CNCTC My 331/88 after 14 days by micromethod; type: functional; details: CNCTC My 331/88, 336 h

Going from `O=[N+]([O-])c1cc(CSc2ccccc2)cc([N+](=O)[O-])c1` to `O=[N+]([O-])c1cc(CSc2nnn[nH]2)cc([N+](=O)[O-])c1`, the MIC rises from 250 µM (≈ 72.6 µg/mL) to 1000 µM (≈ 282 µg/mL) (4-fold).

Going from `COc1ccc(-n2nnnc2SCc2cc(N)cc(N)c2)cc1` to `O=[N+]([O-])c1cc(CSc2nnnn2-c2ccc(Cl)cc2)cc([N+](=O)[O-])c1`, the MIC falls from 125 µM (≈ 41.1 µg/mL) to 1 µM (≈ 0.393 µg/mL) (120-fold).

Compared with `O=[N+]([O-])c1ccc(CSc2nnnn2-c2ccccc2)c([N+](=O)[O-])c1`, `O=[N+]([O-])c1cc(CSc2nnnn2-c2ccc(F)cc2)cc([N+](=O)[O-])c1` is 4-fold lower in MIC: 8 µM (≈ 2.87 µg/mL) for the first, 2 µM (≈ 0.753 µg/mL) for the second.

Work on `NNC(=O)c1ccncc1` [ISONIAZID] yielded an MIC of 0.5 µM (≈ 0.0686 µg/mL).

system: Mycobacterium tuberculosis; experiment: Antimycobacterial activity against Mycobacterium tuberculosis CNCTC My 331/88 after 21 days by micromethod; type: functional; details: CNCTC My 331/88, 504 h

Compared with `O=[N+]([O-])c1cc(CSc2ccccc2)cc([N+](=O)[O-])c1`, `O=[N+]([O-])c1cc(CSc2nnn[nH]2)cc([N+](=O)[O-])c1` is 4-fold higher in MIC: 250 µM (≈ 72.6 µg/mL) for the first, 1000 µM (≈ 282 µg/mL) for the second.

Compared with `COc1ccc(-n2nnnc2SCc2cc(N)cc(N)c2)cc1`, `O=[N+]([O-])c1cc(CSc2nnnn2-c2ccc(Cl)cc2)cc([N+](=O)[O-])c1` is 62-fold lower in MIC: 125 µM (≈ 41.1 µg/mL) for the first, 2 µM (≈ 0.786 µg/mL) for the second.

First: O=[N+]([O-])c1ccc(CSc2nnnn2-c2ccccc2)c([N+](=O)[O-])c1
Second: O=[N+]([O-])c1cc(CSc2nnnn2-c2ccc(F)cc2)cc([N+](=O)[O-])c1
The MIC of the first is 8-fold higher: 16 µM (≈ 5.73 µg/mL) for the first, 2 µM (≈ 0.753 µg/mL) for the second.

Work on `NNC(=O)c1ccncc1` [ISONIAZID] yielded an MIC of 1 µM (≈ 0.137 µg/mL).

system: Mycobacterium avium; experiment: Antimycobacterial activity against Mycobacterium avium CNCTC My 330/88 after 14 days by micromethod; type: functional; details: CNCTC My 330/88, 336 h

Going from `O=[N+]([O-])c1cc(CSc2ccccc2)cc([N+](=O)[O-])c1` to `O=[N+]([O-])c1cc(CSc2nnn[nH]2)cc([N+](=O)[O-])c1`, the MIC rises from 250 µM (≈ 72.6 µg/mL) to 1000 µM (≈ 282 µg/mL) (4-fold).

Compared with `COc1ccc(-n2nnnc2SCc2cc(N)cc(N)c2)cc1`, `O=[N+]([O-])c1cc(CSc2nnnn2-c2ccc(Cl)cc2)cc([N+](=O)[O-])c1` is 8-fold lower in MIC: 1000 µM (≈ 328 µg/mL) for the first, 125 µM (≈ 49.1 µg/mL) for the second.

Going from `O=[N+]([O-])c1ccc(CSc2nnnn2-c2ccccc2)c([N+](=O)[O-])c1` to `O=[N+]([O-])c1cc(CSc2nnnn2-c2ccc(F)cc2)cc([N+](=O)[O-])c1`, the MIC rises from 32 µM (≈ 11.5 µg/mL) to 250 µM (≈ 94.1 µg/mL) (7.8-fold).

In the case of `NNC(=O)c1ccncc1` [ISONIAZID], the MIC is reported as greater than 250 µM.

system: Mycobacterium avium; experiment: Antimycobacterial activity against Mycobacterium avium CNCTC My 330/88 after 21 days by micromethod; type: functional; details: CNCTC My 330/88, 504 h

Compared with `O=[N+]([O-])c1cc(CSc2ccccc2)cc([N+](=O)[O-])c1`, `O=[N+]([O-])c1cc(CSc2nnn[nH]2)cc([N+](=O)[O-])c1` is 4-fold higher in MIC: 250 µM (≈ 72.6 µg/mL) for the first, 1000 µM (≈ 282 µg/mL) for the second.

First: COc1ccc(-n2nnnc2SCc2cc(N)cc(N)c2)cc1
Second: O=[N+]([O-])c1cc(CSc2nnnn2-c2ccc(Cl)cc2)cc([N+](=O)[O-])c1
The MIC of the first is 8-fold higher: 1000 µM (≈ 328 µg/mL) for the first, 125 µM (≈ 49.1 µg/mL) for the second.

Going from `O=[N+]([O-])c1ccc(CSc2nnnn2-c2ccccc2)c([N+](=O)[O-])c1` to `O=[N+]([O-])c1cc(CSc2nnnn2-c2ccc(F)cc2)cc([N+](=O)[O-])c1`, the MIC rises from 62 µM (≈ 22.2 µg/mL) to 250 µM (≈ 94.1 µg/mL) (4-fold).

`NNC(=O)c1ccncc1` [ISONIAZID] showed an MIC greater than 250 µM.

system: Mycobacterium kansasii; experiment: Antimycobacterial activity against Mycobacterium kansasii CNCTC My 235/80 after 7 days by micromethod; type: functional; details: CNCTC My 235/80, 168 h

`O=[N+]([O-])c1cc(CSc2ccccc2)cc([N+](=O)[O-])c1` and `O=[N+]([O-])c1cc(CSc2nnn[nH]2)cc([N+](=O)[O-])c1` are the same in MIC: 250 µM (≈ 72.6 µg/mL) for the first, 250 µM (≈ 70.6 µg/mL) for the second.

First: COc1ccc(-n2nnnc2SCc2cc(N)cc(N)c2)cc1
Second: O=[N+]([O-])c1cc(CSc2nnnn2-c2ccc(Cl)cc2)cc([N+](=O)[O-])c1
The MIC of the first is 120-fold higher: 250 µM (≈ 82.1 µg/mL) for the first, 2 µM (≈ 0.786 µg/mL) for the second.

First: O=[N+]([O-])c1ccc(CSc2nnnn2-c2ccccc2)c([N+](=O)[O-])c1
Second: O=[N+]([O-])c1cc(CSc2nnnn2-c2ccc(F)cc2)cc([N+](=O)[O-])c1
The MIC of the first is 8-fold higher: 16 µM (≈ 5.73 µg/mL) for the first, 2 µM (≈ 0.753 µg/mL) for the second.

`NNC(=O)c1ccncc1` [ISONIAZID] was tested, and the MIC was greater than 250 µM.

system: Mycobacterium kansasii; experiment: Antimycobacterial activity against Mycobacterium kansasii CNCTC My 235/80 after 14 days by micromethod; type: functional; details: CNCTC My 235/80, 336 h

Compared with `O=[N+]([O-])c1cc(CSc2ccccc2)cc([N+](=O)[O-])c1`, `O=[N+]([O-])c1cc(CSc2nnn[nH]2)cc([N+](=O)[O-])c1` is 4-fold higher in MIC: 250 µM (≈ 72.6 µg/mL) for the first, 1000 µM (≈ 282 µg/mL) for the second.

Going from `COc1ccc(-n2nnnc2SCc2cc(N)cc(N)c2)cc1` to `O=[N+]([O-])c1cc(CSc2nnnn2-c2ccc(Cl)cc2)cc([N+](=O)[O-])c1`, the MIC falls from 1000 µM (≈ 328 µg/mL) to 4 µM (≈ 1.57 µg/mL) (250-fold).

Compared with `O=[N+]([O-])c1ccc(CSc2nnnn2-c2ccccc2)c([N+](=O)[O-])c1`, `O=[N+]([O-])c1cc(CSc2nnnn2-c2ccc(F)cc2)cc([N+](=O)[O-])c1` is 16-fold lower in MIC: 62 µM (≈ 22.2 µg/mL) for the first, 4 µM (≈ 1.51 µg/mL) for the second.

`NNC(=O)c1ccncc1` [ISONIAZID] was tested, and the MIC was greater than 250 µM.

system: Mycobacterium kansasii; experiment: Antimycobacterial activity against Mycobacterium kansasii CNCTC My 235/80 after 21 days by micromethod; type: functional; details: CNCTC My 235/80, 504 h

Compared with `O=[N+]([O-])c1cc(CSc2ccccc2)cc([N+](=O)[O-])c1`, `O=[N+]([O-])c1cc(CSc2nnn[nH]2)cc([N+](=O)[O-])c1` is 4-fold higher in MIC: 250 µM (≈ 72.6 µg/mL) for the first, 1000 µM (≈ 282 µg/mL) for the second.

First: COc1ccc(-n2nnnc2SCc2cc(N)cc(N)c2)cc1
Second: O=[N+]([O-])c1cc(CSc2nnnn2-c2ccc(Cl)cc2)cc([N+](=O)[O-])c1
The MIC of the first is 250-fold higher: 1000 µM (≈ 328 µg/mL) for the first, 4 µM (≈ 1.57 µg/mL) for the second.

Compared with `O=[N+]([O-])c1ccc(CSc2nnnn2-c2ccccc2)c([N+](=O)[O-])c1`, `O=[N+]([O-])c1cc(CSc2nnnn2-c2ccc(F)cc2)cc([N+](=O)[O-])c1` is 16-fold lower in MIC: 62 µM (≈ 22.2 µg/mL) for the first, 4 µM (≈ 1.51 µg/mL) for the second.

system: Mycobacterium kansasii; experiment: Antimycobacterial activity against Mycobacterium kansasii 6509/96 after 7 days by micromethod; type: functional; details: 6509/96, 168 h

First: O=[N+]([O-])c1cc(CSc2ccccc2)cc([N+](=O)[O-])c1
Second: O=[N+]([O-])c1cc(CSc2nnn[nH]2)cc([N+](=O)[O-])c1
The MIC of the first is 2-fold higher: 500 µM (≈ 145 µg/mL) for the first, 250 µM (≈ 70.6 µg/mL) for the second.

First: COc1ccc(-n2nnnc2SCc2cc(N)cc(N)c2)cc1
Second: O=[N+]([O-])c1cc(CSc2nnnn2-c2ccc(Cl)cc2)cc([N+](=O)[O-])c1
The MIC of the first is 120-fold higher: 250 µM (≈ 82.1 µg/mL) for the first, 2 µM (≈ 0.786 µg/mL) for the second.

Compared with `O=[N+]([O-])c1ccc(CSc2nnnn2-c2ccccc2)c([N+](=O)[O-])c1`, `O=[N+]([O-])c1cc(CSc2nnnn2-c2ccc(F)cc2)cc([N+](=O)[O-])c1` is 2-fold lower in MIC: 8 µM (≈ 2.87 µg/mL) for the first, 4 µM (≈ 1.51 µg/mL) for the second.

For `NNC(=O)c1ccncc1` [ISONIAZID], the MIC was 4 µM (≈ 0.549 µg/mL).

system: Mycobacterium kansasii; experiment: Antimycobacterial activity against Mycobacterium kansasii 6509/96 after 14 days by micromethod; type: functional; details: 6509/96, 336 h

`O=[N+]([O-])c1cc(CSc2ccccc2)cc([N+](=O)[O-])c1` and `O=[N+]([O-])c1cc(CSc2nnn[nH]2)cc([N+](=O)[O-])c1` are the same in MIC: 500 µM (≈ 145 µg/mL) for the first, 500 µM (≈ 141 µg/mL) for the second.

Compared with `COc1ccc(-n2nnnc2SCc2cc(N)cc(N)c2)cc1`, `O=[N+]([O-])c1cc(CSc2nnnn2-c2ccc(Cl)cc2)cc([N+](=O)[O-])c1` is 250-fold lower in MIC: 1000 µM (≈ 328 µg/mL) for the first, 4 µM (≈ 1.57 µg/mL) for the second.

Going from `O=[N+]([O-])c1ccc(CSc2nnnn2-c2ccccc2)c([N+](=O)[O-])c1` to `O=[N+]([O-])c1cc(CSc2nnnn2-c2ccc(F)cc2)cc([N+](=O)[O-])c1`, the MIC falls from 32 µM (≈ 11.5 µg/mL) to 8 µM (≈ 3.01 µg/mL) (4-fold).

Work on `NNC(=O)c1ccncc1` [ISONIAZID] yielded an MIC of 4 µM (≈ 0.549 µg/mL).

system: Mycobacterium kansasii; experiment: Antimycobacterial activity against Mycobacterium kansasii 6509/96 after 21 days by micromethod; type: functional; details: 6509/96, 504 h

`O=[N+]([O-])c1cc(CSc2ccccc2)cc([N+](=O)[O-])c1` and `O=[N+]([O-])c1cc(CSc2nnn[nH]2)cc([N+](=O)[O-])c1` are the same in MIC: 500 µM (≈ 145 µg/mL) for the first, 500 µM (≈ 141 µg/mL) for the second.

Going from `COc1ccc(-n2nnnc2SCc2cc(N)cc(N)c2)cc1` to `O=[N+]([O-])c1cc(CSc2nnnn2-c2ccc(Cl)cc2)cc([N+](=O)[O-])c1`, the MIC falls from 1000 µM (≈ 328 µg/mL) to 4 µM (≈ 1.57 µg/mL) (250-fold).

Compared with `O=[N+]([O-])c1ccc(CSc2nnnn2-c2ccccc2)c([N+](=O)[O-])c1`, `O=[N+]([O-])c1cc(CSc2nnnn2-c2ccc(F)cc2)cc([N+](=O)[O-])c1` is 2-fold lower in MIC: 32 µM (≈ 11.5 µg/mL) for the first, 16 µM (≈ 6.02 µg/mL) for the second.

With `NNC(=O)c1ccncc1` [ISONIAZID] the MIC was 4 µM (≈ 0.549 µg/mL).
